From patent US4863918A, “Enamine quaternary compounds, methods of making and their use as muscle relaxants” (BOC, Inc., priority 1988, dated 1989)

Assays:
[1] = system: paw twitch; test: Twitch depression (muscle relaxant effect) in anesthetized dogs; dog paw twitch; type: in vivo, mongrel dogs; settings: Table V
Description: (§1) Mongrel dogs were injected with 50 mg/kg of pentobarbital until the onset of anesthesia as determined by the eyeblink reflex test. The injectable solutions prepared above were administered intravenously to the anesthesized mongrel dogs and measurements were made of the muscle relaxant effect including maximum twitch depression, onset, duration and recovery time in a clinically known manner. Each of the subjects were compared with a control animal receiving an injection of distilled water.

[2] = Cardiovascular change (HR, BP) at equi-efficacious dose in rabbits; type: in vivo; settings: rabbit
[3] = system: paw twitch; test: Twitch depression (muscle relaxant effect) in anesthetized rabbits; rabbit paw twitch; type: in vivo, New Zealand White rabbits; settings: for ED90: Oryctolagus cuniculus, read-out: Equi-efficacious dose
Description: [The procedure below names another organism; the source lists this organism under the same test.] as §1
The same compound of the present invention as in
A number of compounds in accordance with the present invention were tested for their neuromuscular blockade Properties. Specifically, the acid addition salts of the compounds were dissolved in sterile water for injection.

[4] = Cardiovascular change (HR, BP) at equi-efficacious dose in dogs; type: in vivo; settings: dog, in vivo
[5] = Table IV, rabbit, at equi-efficacious dose
[6] = Table VI, rabbit paw twitch, at indicated dose
[7] = Table VIII, rabbit paw twitch, at indicated dose
[8] = Table VII, rabbit paw twitch, at indicated dose
[9] = Table IV, at equi-efficacious dose
[10] = Table IV, rabbit, at equi-efficacious dose, depolarizer, based on twitch recovery not to-f
[11] = Table VI, rabbit paw twitch, at indicated dose, in s

C[C@]12CC[C@@H]([N+]3(C)CCCC3)C[C@@H]1CC[C@@H]1[C@@H]2CC[C@@]2(C)[C@H]1CCC[N+]2(C)C.[Br-].[Br-] [RGH-4201]
Equi-efficacious dose ([1]; dog paw twitch): 0.077 mg/kg | Duration (DURAT.) ([1]; dog, at equi-efficacious dose): 28.3 min | Onset ([1]; dog, at equi-efficacious dose): 123.6 s | Recovery (RECOV.) ([1]; dog, at equi-efficacious dose): 22.0 min | BP % ([2]; in vivo): 2.6% | HR % ([2]; in vivo): 0.3% | Equi-efficacious dose ([3]; Table IV, rabbit paw twitch): 0.070 mg/kg | Duration (DURAT.) [3, 5]: 7.7 min | Onset [3, 5]: 35.4 s | Recovery (RECOV.) [3, 5]: 6.1 min | BP % [4]: 1.4% | HR % [4]: 11.3%

CC1(C)CC(N2CCC3(CC2)OCC2(CO3)COC3(CCN(C4=CC(=[N+](CC5CC5)CC5CC5)CC(C)(C)C4)CC3)OC2)=CC(=[N+](CC2CC2)CC2CC2)C1 [compound 52]
Onset [3, 6]: 48.5 s

CC1(C)CC(N2CCC3(CC2)OCC2(CO3)COC3(CCN(C4=CC(=[N+]5CC6(C)CC5CC(C)(C)C6)CC(C)(C)C4)CC3)OC2)=CC(=[N+]2CC3(C)CC2CC(C)(C)C3)C1 [compound 39]
Onset [3, 6]: 75.9 s

CC1(C)CC(N2CCC3(CC2)OCC2(CO3)COC3(CCN(C4=CC(=[N+]5CCCC5)CC(C)(C)C4)CC3)OC2)=CC(=[N+]2CCCC2)C1 [compound 46]
Onset [3, 6]: 62.8 s

CC1CC[N+](=C2C=C(N3CCC4(CC3)OCC3(CO4)COC4(CCN(C5=CC(=[N+]6CCC(C)CC6)CC(C)(C)C5)CC4)OC3)CC(C)(C)C2)CC1 (stereo not drawn) [compound 28]
Onset [3, 6]: 49.9 s

CC1(C)CC(N2CCC3(CC2)OCC2(CO3)COC3(CCN(C4=CC(=[N+]5CCOCC5)CC(C)(C)C4)CC3)OC2)=CC(=[N+]2CCOCC2)C1 [compound 49]
Onset [3, 6]: 58.8 s

CC1(C)CC(N2CCC3(CC2)OCC2(CO3)COC3(CCN(C4=CC(=[N+]5CC6CCC(CC6)C5)CC(C)(C)C4)CC3)OC2)=CC(=[N+]2CC3CCC(CC3)C2)C1 [compound 17]
Onset [3, 6]: 49.6 s

CC1C[N+](=C2C=C(N3CCCC4(CC3)OCC3(CO4)COC4(CCCN(C5=CC(=[N+]6CCC7(OCCO7)C(C)C6)CC(C)(C)C5)CC4)OC3)CC(C)(C)C2)CCC12OCCO2 (stereo not drawn) [No. 11]
Onset [3, 7]: 62.1 s

CC[N+](CCC1OCCO1)=C1C=C(N2CCC3(CC2)OCC2(CO3)COC3(CCN(C4=CC(=[N+](CC)CCC5OCCO5)CC(C)(C)C4)CC3)OC2)CC(C)(C)C1 [compound 53]
Onset [3, 6]: 58.6 s

CCOC(=O)C[N+](CC)=C1C=C(N2CCC3(CC2)OCC2(CO3)COC3(CCN(C4=CC(=[N+](CC)CC(=O)OCC)CC(C)(C)C4)CC3)OC2)CC(C)(C)C1
Onset [3, 6]: 39 s

descuronium
BP % ([2]; in vivo): -7.6% | HR % ([2]; in vivo): -4.1% | Equi-efficacious dose ([3]; Table IV, rabbit paw twitch): 0.053 mg/kg | Duration (DURAT.) [3, 5]: 21.5 min | Onset [3, 5]: 129.4 s | Recovery (RECOV.) [3, 5]: 13.1 min

CC1(C)CC(N2CCC3(CC2)OCC2(CO3)COC3(CCN(C4=CC(=[N+]5CCCCCCC5)CC(C)(C)C4)CC3)OC2)=CC(=[N+]2CCCCCCC2)C1 [compound 20]
Onset [3, 6]: 57.5 s

CC1(C)CC(N2CCC3(CC2)OCC2(CO3)COC3(CCN(C4=CC(=[N+]5CCCCCC5)CC(C)(C)C4)CC3)OC2)=CC(=[N+]2CCCCCC2)C1 [compound 24]
Onset [3, 6]: 64 s

CC1(C)CC(N2CCC3(CC2)OCC2(CO3)COC3(CCN(C4=CC(=[N+]5CCCC6(CC5)OCCO6)CC(C)(C)C4)CC3)OC2)=CC(=[N+]2CCCC3(CC2)OCCO3)C1 [compound 14]
Onset [3, 6]: 52.8 s

CC[N+](CC)=C1C=C(N2CCC3(CC2)OCC2(CO3)COC3(CCN(C4=CC(=[N+](CC)CC)CC(C)C4)CC3)OC2)CC(C)C1 (stereo not drawn) [compound 41]
Onset [3, 6]: 51 s

CC[N+](CCC1OCCO1)=C1C=C(N2CCCC3(C2)OCC2(CO3)COC3(CCCN(C4=CC(=[N+](CC)CCC5OCCO5)CC(C)(C)C4)C3)OC2)CC(C)(C)C1 (stereo not drawn) [No. 21]
Onset [3, 8]: 33.3 s

CC1(C)CC(N2CCC3(CC2)OCC2(CO3)COC3(CCN(C4=CC(=[N+]5CCCCC5)CC(C)(C)C4)CC3)OC2)=CC(=[N+]2CCCCC2)C1 [compound 50]
Onset [3, 6]: 59.9 s

CC1(C)CC(N2CCC3(CC2)OCC2(CO3)COC3(CCN(C4=CC(=[N+](Cc5ccco5)Cc5ccco5)CC(C)(C)C4)CC3)OC2)=CC(=[N+](Cc2ccco2)Cc2ccco2)C1 [compound 11]
Onset [3, 6]: 77.3 s

COc1ccc2cc1Oc1cc3c(cc1OC)CC[N+](C)(C)[C@H]3Cc1ccc(cc1)Oc1c(OC)c(OC)cc3c1[C@@H](C2)[N+](C)(C)CC3 [metocurine]
BP % [2, 9]: -1.6% | HR % [2, 9]: 0.2% | ED90 ([3]; Table IV, rabbit paw twitch): 0.025 mg/kg | Duration (DURAT.) [3, 5]: 37.8 min | Onset [3, 5]: 72.4 s | Recovery (RECOV.) [3, 5]: 34.9 min

CC1(C)CC(N2CCCC3(CC2)OCC2(CO3)COC3(CCCN(C4=CC(=[N+]5CCCCCC5)CC(C)(C)C4)CC3)OC2)=CC(=[N+]2CCCCCC2)C1 (stereo not drawn) [No. 13]
Onset [3, 7]: 88.3 s

CC1CCC[N+](=C2C=C(N3CCC4(CC3)OCC3(CO4)COC4(CCN(C5=CC(=[N+]6CCCC(C)C6)CC(C)(C)C5)CC4)OC3)CC(C)(C)C2)C1 (stereo not drawn) [compound 33]
Onset [3, 6]: 53.1 s

CCC[N+](CC1CC1)=C1C=C(N2CCC3(CC2)OCC2(CO3)COC3(CCN(C4=CC(=[N+](CCC)CC5CC5)CC(C)(C)C4)CC3)OC2)CC(C)(C)C1 [compound 21]
Onset [3, 6]: 47.7 s

C[N+](C)(C)CCCCCCCCCC[N+](C)(C)C [decamethonium]
BP % [2, 9]: -2.6% | HR % [2, 9]: -2.8% | ED90 ([3]; Table IV, rabbit paw twitch): 0.165 mg/kg | Onset [3, 5]: 104.0 s | Duration (DURAT.) [3, 10]: 41.7 min | Recovery (RECOV.) [3, 10]: 41.7 min

CC1(C)CC(N2CCC3(CC2)OCC2(CO3)COC3(CCN(C4=CC(=[N+]5CCc6ccccc6C5)CC(C)(C)C4)CC3)OC2)=CC(=[N+]2CCc3ccccc3C2)C1 [compound 48]
Onset [3, 11]: 113.5

C=CC[N+](CC=C)=C1C=C(N2CCC3(CC2)OCC2(CO3)COC3(CCN(C4=CC(=[N+](CC=C)CC=C)CC(C)(C)C4)CC3)OC2)CC(C)(C)C1 [compound 35]
Onset [3, 6]: 61.9 s

CC1CCC[N+](=C2C=C(N3CCCC4(C3)OCC3(CO4)COC4(CCCN(C5=CC(=[N+]6CCCC(C)C6)CC(C)(C)C5)C4)OC3)CC(C)(C)C2)C1 (stereo not drawn) [No. 20]
Onset [3, 8]: 44.9 s

CC1(C)CC(N2CCC3(CC2)OCC2(CO3)COC3(CCN(C4=CC(=[N+](CC5CC5)CC(F)(F)F)CC(C)(C)C4)CC3)OC2)=CC(=[N+](CC2CC2)CC(F)(F)F)C1 [compound 51]
Onset [3, 6]: 51 s

COc1cc(CC2c3c(cc(OC)c(OC)c3OC)CC[N+]2(C)CCCOC(=O)CCC(=O)OCCC[N+]2(C)CCc3cc(OC)c(OC)c(OC)c3C2Cc2cc(OC)c(OC)c(OC)c2)cc(OC)c1OC (stereo not drawn) [BW938]
BP % ([2]; in vivo): -5.2% | HR % ([2]; in vivo): -3.8% | Equi-efficacious dose ([3]; Table IV, rabbit paw twitch): 0.010 mg/kg | Duration (DURAT.) [3, 5]: 167.0 min | Onset [3, 5]: 282.4 s | Recovery (RECOV.) [3, 5]: 101.7 min

C[N+](CCc1ccccc1)=C1C=C(N2CCC3(CC2)OCC2(CO3)COC3(CCN(C4=CC(=[N+](C)CCc5ccccc5)CC(C)(C)C4)CC3)OC2)CC(C)(C)C1 [compound 36]
Onset [3, 6]: 81.9 s

CC[N+](CC)=C1C=C(N2CCC3(CC2)OCC2(CO3)COC3(CCN(C4=CC(=[N+](CC)CC)CC(C)C4)CC3)OC2)CC(C)C1 (stereo not drawn) [compound 54]
Onset [3, 6]: 51 s

CC1(C)CC(N2CCC3(CC2)OCC2(CO3)COC3(CCN(C4=CC(=[N+]5CCC(c6ccccc6)CC5)CC(C)(C)C4)CC3)OC2)=CC(=[N+]2CCC(c3ccccc3)CC2)C1 (stereo not drawn) [compound 31]
Onset [3, 11]: 105.6

CC1(C)CC(N2CCC3(CC2)OCC2(CO3)COC3(CCN(C4=CC(=[N+]5CCCCCC5)CC(C)(C)C4)CC3)OC2)=CC(=[N+]2CCCCCC2)C1 [compound 29]
Onset [3, 6]: 56.1 s

CC[N+](Cc1cccs1)=C1C=C(N2CCC3(CC2)OCC2(CO3)COC3(CCN(C4=CC(=[N+](CC)Cc5cccs5)CC(C)(C)C4)CC3)OC2)CC(C)(C)C1 [compound 13]
Onset [3, 6]: 88.1 s

CC1CC(N2CCC3(CC2)OCC2(CO3)COC3(CCN(C4=CC(=[N+]5CCCC6(CC5)OCCO6)CC(C)C4)CC3)OC2)=CC(=[N+]2CCCC3(CC2)OCCO3)C1 (stereo not drawn) [compound 42]
Onset [3, 6]: 75.6 s

CC1(C)CC(N2CCCC3(C2)OCC2(CO3)COC3(CCCN(C4=CC(=[N+]5CCCC6(CC5)OCCO6)CC(C)(C)C4)C3)OC2)=CC(=[N+]2CCCC3(CC2)OCCO3)C1 (stereo not drawn) [No. 13]
Onset [3, 8]: 36.5 s

CC1=C(N2CCC3(CC2)OCC2(CO3)COC3(CCN(C4=C(C)C(=[N+]5CCCCCC5)CC4)CC3)OC2)CCC1=[N+]1CCCCCC1 [compound 38]
Onset [3, 11]: 100.0

COC1C[N+](=C2C=C(N3CCCC4(C3)OCC3(CO4)COC4(CCCN(C5=CC(=[N+]6CCC(OC)(OC)C(OC)C6)CC(C)(C)C5)C4)OC3)CC(C)(C)C2)CCC1(OC)OC (stereo not drawn)
Onset [3, 8]: 44.4 s

CCC[N+](CC1CC1)=C1C=C(N2CCC3(CC2)OCC2(CO3)COC3(CCN(C4=CC(=[N+](CCC)CC5CC5)CC(C)C4)CC3)OC2)CC(C)C1 (stereo not drawn) [compound 56]
Onset [3, 6]: 62.3 s

CC1(C)CC(N2CCCC3(CC2)OCC2(CO3)COC3(CCCN(C4=CC(=[N+]5CCCC6(C5)OCCO6)CC(C)(C)C4)CC3)OC2)=CC(=[N+]2CCCC3(C2)OCCO3)C1 (stereo not drawn) [No. 14]
Onset [3, 7]: 44.5 s

CC[N+](CC1CC1)=C1C=C(N2CCCC3(C2)OCC2(CO3)COC3(CCCN(C4=CC(=[N+](CC)CC5CC5)CC(C)(C)C4)C3)OC2)CC(C)(C)C1 (stereo not drawn) [No. 17]
Onset [3, 8]: 39.3 s

CC1(C)CC(N2CCC3(CC2)OCC2(CO3)COC3(CCN(C4=CC(=[N+]5CCCCCC5)CC(C)(C)C4)CC3)OC2)=CC(=[N+]2CCCCCC2)C1 [compound 44]
Onset [3, 6]: 67.2 s
